Molecular target: T1, KIAA0664 Clustered mitochondria protein homolog (Homo sapiens, UniProt O75153)
T1 construct: Cells were resuspended in cold PBS on ice and sonicated with a probe sonicator to achieve lysis; endogenous in cells
T1 sequence (O75153 1-1309): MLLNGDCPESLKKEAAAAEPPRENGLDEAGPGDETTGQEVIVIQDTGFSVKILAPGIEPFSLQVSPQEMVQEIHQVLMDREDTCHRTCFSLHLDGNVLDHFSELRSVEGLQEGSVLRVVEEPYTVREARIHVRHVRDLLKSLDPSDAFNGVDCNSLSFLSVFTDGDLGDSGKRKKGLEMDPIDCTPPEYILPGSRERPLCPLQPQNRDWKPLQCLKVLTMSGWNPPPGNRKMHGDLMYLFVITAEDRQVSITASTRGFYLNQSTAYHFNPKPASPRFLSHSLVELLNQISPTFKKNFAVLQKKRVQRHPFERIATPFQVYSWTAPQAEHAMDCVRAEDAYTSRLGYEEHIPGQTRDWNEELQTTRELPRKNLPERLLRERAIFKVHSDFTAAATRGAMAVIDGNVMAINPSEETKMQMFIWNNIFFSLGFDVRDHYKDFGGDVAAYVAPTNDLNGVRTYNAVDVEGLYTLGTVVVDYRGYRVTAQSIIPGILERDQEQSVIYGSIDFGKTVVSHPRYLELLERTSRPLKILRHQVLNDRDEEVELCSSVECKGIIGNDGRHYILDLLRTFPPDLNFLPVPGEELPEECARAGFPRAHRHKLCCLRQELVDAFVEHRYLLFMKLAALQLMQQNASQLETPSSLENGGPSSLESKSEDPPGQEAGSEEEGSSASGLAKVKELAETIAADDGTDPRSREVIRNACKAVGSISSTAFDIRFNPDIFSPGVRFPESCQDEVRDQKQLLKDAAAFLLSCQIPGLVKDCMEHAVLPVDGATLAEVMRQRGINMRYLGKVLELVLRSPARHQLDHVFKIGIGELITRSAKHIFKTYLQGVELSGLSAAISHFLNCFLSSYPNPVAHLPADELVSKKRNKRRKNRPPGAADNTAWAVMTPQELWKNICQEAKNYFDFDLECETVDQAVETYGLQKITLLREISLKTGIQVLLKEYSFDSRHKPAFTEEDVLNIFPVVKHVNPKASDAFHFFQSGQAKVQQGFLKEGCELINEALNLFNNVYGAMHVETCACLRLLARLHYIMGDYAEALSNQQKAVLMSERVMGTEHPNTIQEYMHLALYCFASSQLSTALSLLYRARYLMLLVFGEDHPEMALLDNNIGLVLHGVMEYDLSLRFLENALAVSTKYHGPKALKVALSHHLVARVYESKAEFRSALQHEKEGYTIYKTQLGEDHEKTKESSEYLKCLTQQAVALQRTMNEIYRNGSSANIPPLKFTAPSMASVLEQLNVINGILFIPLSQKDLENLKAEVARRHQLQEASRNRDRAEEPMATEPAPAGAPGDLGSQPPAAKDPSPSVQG
Assay: Cysteine liganding, probe competition
Type: binding
Method in brief: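 Read-out is loss of desthiobiotin iodoacetamide labelling at cysteines, measured on streptavidin-enriched tryptic peptides. Compound preincubation ran 1 hr at 25° C in PBS lysate holding 5 mg/ml proteome before the probe was added.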

| Compound | Liganded (KIAA0664 Res# 333, uniprot O75153) | 100 Max (uniprot O75153) | 100 ave (uniprot O75153) | 500 ave (uniprot O75153) | 500 Max (uniprot O75153, in % (unit assumed)) |
| --- | --- | --- | --- | --- | --- |
| COc1ccc2c(c1)CCCN2C(=O)CCl [KB02] | YES |  |  |  |  |
| O=C(CCl)Nc1cc(C(F)(F)F)cc(C(F)(F)F)c1 [KBO3] |  | 23.11 | 9.323 | 51.405 | 73.65 |
